In patent US8614179B2, “Antibacterial combination therapy for the treatment of gram positive bacterial infections” (E-Therapeutics PLC, priority 2008, dated 2013) one finds MIC data, which are given here for one compound.

Where two headings read alike, the source gives them in different places.

In one assay the test system is VISA. As to the kind of experiment: microbe, parasite or virus in culture. It counts as cell-based. The note with it: Staphylococcus aureus, read-out: MIC. As to the method: (§1) In example experiments miconazole nitrate, econazole nitrate and clotrimazole were dissolved in DMSO. Colistin, D-cycloserine, fosfomycin and polymixin B were dissolved in water. Nisin was suspended at 10 mg/mL in 0.02 M HCl, and the supernatant fraction following centrifugation at 10,000 g for 10 mins was used in the following experiments.
(§2) Other solvents that may be used include caster oil, pyridine, and 0.9% saline. For IV administration agents may be solubilised in polyethoxylated caster oil, or cyclodextrins such as sulfobutylether7-βcyclodextrin or hydroxypropyl-β-cyclodextrin and lactic acid. Minimum inhibitory concentrations (MICs) of a range of clinical and control bacterial organisms were measured according to BSAC (British Society for Antimicrobial Chemotherapy) guidelines (Andrews 2001), for single agents. The method of determining MICs of imidazole with colistin, D-cycloserine, fosfomycin, polymixin B, or nisin is described briefly as follows. MICs were measured by agar dilution. Kill curves were performed in accordance with the methods of Garrison and Nuemiller, 2007. Briefly kill profiles were generated by logarithmically plotting mean CFU/mL data over time. Total logarithmic reductions in bacterial counts were determined by subtracting 24 h CFU/mL values from starting inocula.
(§3) Stock solutions were prepared at concentrations of 1000 mg/L and 100 mg/L. To determine the MIC of miconazole, the appropriate amount of each stock solution were added to separate Petri dishes give a range of final concentrations (after the addition of 20 mL molten agar): from 0.12 to 32 mg/L. To determine the MICs of miconazole with the specific agent active on a bacterial cell surface, these concentrations of miconazole were used in addition to a fixed sub-inhibitory amount of the agent active on a bacterial cell surface. […] Volumes (20 mL) of cooled molten IST agar (oxoid) was added to each Petri dish and mixed by swirling. After drying, the plates were stored at 4° C. and protected from light. Plates were used on the day of preparation.
(§4) The test organisms were grown overnight in 5 mL IST broth. Using a dilution in 0.9% saline of 1:100, the appropriate agar plates were inoculated using a multipoint inoculator.
(§5) Agar plates and microtitre plates were incubated at 37° C. in air for 18-20 hours.
(§6) The MIC is the minimum amount of an antibiotic at which there is no visible growth of bacteria. Tiny single colonies or faint hazes were not counted as growth. Synergy was reported if the inhibitory effect of the drugs in combination were greater than the sum of the inhibitory effects of each drug singly. The concentration of miconazole, with or without the cell membrane or cell wall active agent, capable of inhibiting the growth of 50% and 90% of the strains tested is reported as the MIC50 and MIC90 respectively. The range of MICs for each group of bacterial strains is also reported.

The test system of another assay is MRSA. In words: microbe, parasite or virus in culture. The settings on record: Staphylococcus aureus. It counts as cell-based. The procedure: as §1, §2, §3, §4, §5, §6

For the compound `Clc1ccc(COC(Cn2ccnc2)c2ccc(Cl)cc2Cl)c(Cl)c1` (stereo not drawn) [Miconazole, 1-[2-(2,4-Dichlorophenyl)-2-[(2,4-dichlorophenyl)methoxy]ethyl]-1H-imidazole], the MIC with VISA (Table 4, strain Mu3ex Japan, agents singly or miconazole MIC with 2.5 mg/L nisin) came out at 2 µg/mL; with VISA (Table 4, strain Mu50ex Japan, agents singly or miconazole MIC with 2.5 mg/L nisin), 1 µg/mL; in the assay on VISA (Table 4, strain USA/VISA 5827, agents singly or miconazole MIC with 2.5 mg/L nisin), 2 µg/mL; in the assay with VISA (Table 4, strain USA/VISA 5836, agents singly or miconazole MIC with 2.5 mg/L nisin), 4 µg/mL; with VISA (Table 4, strain VISA 3900 UK, agents singly or miconazole MIC with 2.5 mg/L nisin), 2 µg/mL; in the assay with MRSA (Table 4, strain LF10, agents singly or miconazole MIC with 2.5 mg/L nisin), 2 µg/mL. In addition, the MIC in the assay with MRSA (Table 4, strain LF11, agents singly or miconazole MIC with 2.5 mg/L nisin) came to 2 µg/mL; with MRSA (Table 4, strain LF12, agents singly or miconazole MIC with 2.5 mg/L nisin), 2 µg/mL; with MRSA (Table 4, strain LF13, agents singly or miconazole MIC with 2.5 mg/L nisin) it was 2 µg/mL; in the assay on MRSA (Table 4, strain LF14, agents singly or miconazole MIC with 2.5 mg/L nisin) it was 2 µg/mL; in the assay on MRSA (Table 4, strain LF15, agents singly or miconazole MIC with 2.5 mg/L nisin) it was 2 µg/mL; in the assay with MRSA (Table 4, strain LF16, agents singly or miconazole MIC with 2.5 mg/L nisin), 2 µg/mL. For the same compound, the MIC with MRSA (Table 4, strain LF17, agents singly or miconazole MIC with 2.5 mg/L nisin) was 2 µg/mL; in the assay with MRSA (Table 4, strain LF18, agents singly or miconazole MIC with 2.5 mg/L nisin), 1 µg/mL; in the assay with MRSA (Table 4, strain LF19, agents singly or miconazole MIC with 2.5 mg/L nisin) it was 2 µg/mL; in the assay on MRSA (Table 4, strain PF 15a 009521M ST22 EMRSA, agents singly or miconazole MIC with 2.5 mg/L nisin), 1 µg/mL; with MRSA (Table 4, strain PF 16a 00923R EMRSA 16, agents singly or miconazole MIC with 2.5 mg/L nisin), 2 µg/mL; in the assay on MRSA (Table 4, strain PF 99b 983237K BERIAN CLONE, agents singly or miconazole MIC with 2.5 mg/L nisin), 2 µg/mL. In addition, the MIC in the assay with MRSA (Table 4, strain PF 116a 981695K, agents singly or miconazole MIC with 2.5 mg/L nisin) worked out at 2 µg/mL; in the assay with MRSA (Table 4, strain PF 153a 026225E, agents singly or miconazole MIC with 2.5 mg/L nisin), 0.5 µg/mL; in the assay with MRSA (Table 4, strain S113 MRSA, agents singly or miconazole MIC with 2.5 mg/L nisin) it was 2 µg/mL.
